Measured values published in ChEMBL document CHEMBL3603787, “Antiproliferative and tumor inhibitory studies of 2,3 disubstituted 4-thiazolidinone derivatives” (Bioorg Med Chem Lett, 2015).
Active and inactive are the calls of the source. No cut-off for these calls is given here.

What was measured:
REH [1] = assay: Antiproliferative activity against human REH cells after 48 hrs by MTT assay; type: functional, cell-based
[2] = Antiproliferative activity against human NALM6 cells after 48 hrs by MTT assay; type: functional, cell-based; conditions: NALM-6, 48 h
Ehrlich [3] = assay: Antitumor activity against mouse EAC cells allografted in mouse assessed as reduction of tumor volume at 25 mg/kg measured up to 14 days; type: functional, organism-based
REH [4] = assay: Cell cycle arrest in human REH cells assessed as accumulation at sub-G1 phase after 48 hrs using propidium iodide staining; type: functional, cell-based
Mus musculus [5] = assay: Toxicity in mouse EAC allografted mouse assessed as effect on morphology and cellular construction of organs at 25 mg/kg; type: organism-based; conditions: in vivo
Mus musculus [6] = assay: Toxicity in mouse EAC allografted mouse assessed as effect on organs function at 25 mg/kg; type: organism-based; conditions: in vivo
REH [7] = assay: Induction of apoptosis in human REH cells assessed as decrease in mitochondrial membrane potential using green fluorescence of JC-1 dye after 48 hrs; type: functional, cell-based
[8] = Antiproliferative activity against human HEK293T cells after 48 hrs by MTT assay; type: cell-based; conditions: HEK-293T
Ehrlich [9] = assay: Antitumor activity against mouse EAC cells allografted in mouse assessed as necrosis and innumerable number of apoptotic cells at 25 mg/kg measured up to 14 days; type: functional, organism-based

| SMILES | IC50 (REH [1]) [µM] | IC50 [2] [µM] | also measured |
| --- | --- | --- | --- |
| COc1cccc(N2C(=O)CSC2c2ccc(F)cc2)c1 (configuration not stated) | > 100 | 49.8 | – |
| O=C1CSC2(CCCCC2)N1c1ccc(OC(F)F)cc1 | 41.4 | > 100 | – |
| COc1ccc(N2C(=O)CSC2c2ccc(O)cc2)cc1OC (configuration not stated) | 69.4 | > 100 | – |
| CC(C)(C)OC(=O)N1CCC(C2SCC(=O)N2c2ccc(N3CCN(C(=O)OC(C)(C)C)CC3)cn2)CC1 (configuration not stated) | > 100 | 82.9 | – |
| COc1ccc(N2C(=O)CSC2c2cccnc2)cc1OC (configuration not stated) | > 100 | > 100 | – |
| O=C1CSC2(CCCC2)N1c1ncccn1 | > 100 | > 100 | – |
| Cc1ccccc1N1C(=O)CSC1c1ccc(C(F)(F)F)cc1 (configuration not stated) | 29.6 | 42.6 | – |
| CN(C)c1ccc(C2SCC(=O)N2c2ccc(Br)cc2)cc1 (configuration not stated) | 11.9 | 13.2 | Activity (Ehrlich [3]): Active; Activity (REH [4]): Dose-dependent effect; Activity (Mus musculus [5]): Non-toxic; Activity (Mus musculus [6]): Non-toxic; Activity (REH [7]): Dose-dependent effect; IC50 [8]: > 80 µM; Activity (Ehrlich [9]): Active |
| COc1ccc(N2C(=O)CSC2c2ccccc2[N+](=O)[O-])cc1 (configuration not stated) | > 100 | 93.4 | – |
| CC1(c2ccccc2)SCC(=O)N1c1cc(Cl)cc(Cl)c1 (configuration not stated) | > 100 | > 100 | – |
